Experimental data reported in US20210332408A1, “SYSTEMS AND METHODS FOR OPTIMIZATION OF ENZYMES” (Vader Nanotechnologies Inc., priority 2020, published 2021).

System: bacterial growth
Test: Maximum PFNA experiment, image processing of bacterial growth (FIG. 6)
Format: cell-based
Conditions: FIG. 6, images at T=0, 10, 80 hrs

Structure (SMILES): O=C(O)C(F)(F)C(F)(F)C(F)(F)C(F)(F)C(F)(F)C(F)(F)C(F)(F)C(F)(F)F [PFNA Solution, Perfluorononanoic acid (PFNA)]
- bacterial growth with increasing PFNA concentration: slows bacterial growth
